The series in a line: Caco-2 permeability assay. The note with it: human; for Papp A→B at 2 h, 5 μM / Papp B→A at 2 h, 5 μM: Caco-2, 5 μM. Type of series: in vitro ADME. How it is done:
Caco-2 cells were cultured in 10% FBS DMEM for 14-21 days before assays. […] HBSS was added to the opposite chamber. After 2 hours incubation at 37°C, samples were analyzed by LC-MS/MS. Fluorescein leakage was tested by adding 100 μM fluorescein to the upper chamber and measuring fluorescence after 30 minutes.
On the technique in general: Caco-2 cells form a polarised layer with tight junctions and transporters.

[1] abbreviates: Caco-2, Caco-2, B-A, read-out: Recovery B-A%.

The values below come from publication PMC11968394, “The effect of deuterated PLK1 inhibitor on its safety and efficacy in vivo” (Frontiers in Oncology, 2025).

Broadly, the Papp A→B is how fast a substance crosses the layer from the apical side. As a reminder, the Papp B→A is how fast a substance crosses the layer from the basolateral side.

Like-named read-outs stand apart in the source and are kept apart here.

On to `C[C@H]1O[C@@H](O[C@H]2[C@@H](O)C[C@H](O[C@H]3[C@@H](O)C[C@H](O[C@H]4CC[C@@]5(C)[C@H](CC[C@@H]6[C@@H]5C[C@@H](O)[C@]5(C)[C@@H](C7=CC(=O)OC7)CC[C@]65O)C4)O[C@@H]3C)O[C@@H]2C)C[C@H](O)[C@@H]1O` [Digoxin], for which the Papp A→B at 2 h, 5 μM stood at 9 nm/s and the Papp B→A at 2 h, 5 μM amounted to 261 nm/s. In addition, the recovery at 2 h, 5 μM (Caco-2, Caco-2, A-B, read-out: Recovery A-B%) was determined as 78.5%. Under setting [1], the recovery at 2 h, 5 μM was 101%.

`CC(C)NCC(O)COc1cccc2ccccc12` (stereo not shown) [Propraolol, Propranolol] gave a Papp A→B at 2 h, 5 μM of 223 nm/s and a Papp B→A at 2 h, 5 μM of 147 nm/s. Moreover, the recovery at 2 h, 5 μM under setting [1] is 84.9%.
